Patent US20070087978A1, “Method of Controlling Animal Pests” (priority 1999, published 2007)

How the values were obtained:
[1] = system: white flies; experiment: Control of white flies on poinsettia; format: in vivo
From the text: It was compared to untreated plants or plants treated with the commercial insecticides Bifenthrin, Neem Oil or Acephate.

[2] = system: silverleaf whitefly, Bemista argentifolii; format: in vivo; conditions: 3 days after treatment, rate 2.5 oz/10 gal. water
Description: In another study, twenty poinsettia plants were planted into 6.0 inch containers and were grown in a greenhouse and arranged in a completely randomized design (CRD). […] Plants were sampled before (precount) and 3 days after treatment (DAT) by randomly harvesting 10 leaves from each plant and then counting the number of live and dead whitefly nymphs.
All data were analyzed in a completely randomized design using a two-way analysis of variance (ANOVA) for the number of live whitefly nymphs and percent mortality 3 days after treatment. Percent mortality was determined by dividing the number of dead whiteflies by the total number of whiteflies (alive and dead).

[3] = system: Erwinia (Fireblight); conditions: in vivo
From the text: A series of foliar sprays was applied before, during and after bloom and later in the season as needed. […] This unexpected, unusual multiple benefit indicates a phytotherapeutic defense wherein the copper molecule, it is believed, is rendered metabolizable by the plant, thereby enhancing its own defense characteristics. The molecule of copper is rendered systemic so that its action is accomplished, most importantly, inside the treated plants. Thus a continuity of protection and a reinvigorating effect on the plant are assured, which is evidenced by the quantity and unblemished quality of the fruit.
In a replicated study with controls, 10 foliar sprays were applied between March and August at times most useful to control the disease in the course of the season's adverse weather variables which encourage Erwinia. By the time of harvest, the normal state of distress of the trees' photosynthetic activity with standard copper bactericides such as copper oxychloride or the classic Bordeau mixture was missing. The consequences of this physiology were very evident at the time of harvest quantitatively and qualitatively.

[4] = system: Erwinia Amylovora; experiment: KT-19827 compared with an SAR on pear with Erwinia; format: in vivo
From the text: Systemic Activator Resistance (SAR) materials affect the treated plant so it resists outbreaks of disease over longer periods of time. KT-19827 was compared with a leading commercial SAR called Bion or Actiguard (Acibenszolar-S-Methyl by Novaritis) against Erwinia Amylovora on pear trees, variety “Butirra”. The test was for the full growing season. Efficacy against Erwinia on the trees and fruit was 98% for […], 73.6% for Bion and zero on the untreated control pear trees. Standard label rates for each product were applied as a foliar spray in an equal manner.
The study was not designed to measure the comparative quantity of pears produced on the three plots.

[5] = system: two spotted spider mite, Tetranychus urticae; experiment: Spider mite control on greenhouse-grown potted miniature roses; format: in vivo; conditions: rate 0.4 oz. per 10 gallons
From the text: Mites are a serious pest of plants grown throughout the world. […] It was compared to untreated control plants or plants treated with the commercial miticide, Avermectin, (Avid) at 0.4 oz. Per 10 gallons. There were six replicate plants per treatment. Adult and nymph spider mites were counted on three areas of each plant (upper, middle, lower). The sum of these three measurements is presented.

[6] = system: Spider Mite; format: in vivo; conditions: 0.4 ounces per 10 gallons
Description: Another experiment was conducted on Marigolds in 6-inch pots. […] It was compared to untreated controls, the commercial miticide Avermectin (Avid, Merck) at 0.4 ounces per 10 gallons, and the commercial Neem-based insecticide Triact 90 at 10.0 mL per liter. There were 6 replications. Plant samples of 5 leaves were taken randomly from upper to lower plant areas.

[7] = system: nematode Aphielenchoides frageria; experiment: Nematode trial on Anemone vitfolia; format: in vivo; conditions: repeated measure ANOVA and Kruskal-Wallis ANOVA
From the text: In another trial, no control of the nematode Aphielenchoides […] on Anemone vitfolia was found as to nematode count when measured by repeated measure analysis of variance (ANOVA) and non-[…] for either KT-19827 or Avermectin. […] The symptomatic leaf analysis was done at the end of the 12 week trial period, during which 6 sprays were applied at 2 week intervals. ANOVA was the analytical measurement methodology.

Cc1c(COC(=O)[C@@H]2[C@H](/C=C(\Cl)C(F)(F)F)C2(C)C)cccc1-c1ccccc1 (racemic) [Befenthria, Bifenthrin]
Mean Number of White Flies ([1]; 6 Days After Treatment, rate 0.1): 27.7 living whitefly immatures per leaf
Mean Number of White Flies ([1]; 10 Days After Treatment, rate 0.1): 8.7 living whitefly immatures per leaf

CCOP(=S)(OCC)Oc1nc(Cl)c(Cl)cc1Cl [Chlorpyrifos, chlorpyrifos]
Live Whitefly Nymphs (3 DAT) [2]: 143.0bc
% Mortality ([2]; dead / total whiteflies): 34.0ab %

tannate complex of picro cupric ammonium formate [KT-19827]
damage to tender tissue (blooms) [3]: without damage to tender blooms

CSC(=O)c1cccc2nnsc12 [Bion, Acibenszolar-S-Methyl]
packets of harvested pears showing evidence of disease ([4]; at harvest): 17 out of 238
Efficacy against Erwinia on the trees and fruit ([4]; pear variety Butirra, full growing season, standard label rates, foliar spray): 73.6%

CC[C@H](C)[C@H]1O[C@]2(C=C[C@@H]1C)C[C@@H]1C[C@@H](C/C=C(\C)[C@@H](O[C@H]3C[C@H](OC)[C@@H](O[C@H]4C[C@H](OC)[C@@H](O)[C@H](C)O4)[C@H](C)O3)[C@@H](C)/C=C/C=C3\CO[C@@H]4[C@H](O)C(C)=C[C@@H](C(=O)O1)[C@]34O)O2 [Avermectin]
Mean Number of Adult and Nymph Mites ([5]; 6 Days After Treatment, sum of upper, middle, lower plant areas): 0b
Mean Number of Adult and Nymph Mites ([5]; 10 Days After Treatment): 0.2b
Mean Number of Adult and Nymph Mites ([5]; 16 Days After Treatment): 0.7b
mite population, Week 2 [6]: 6.2c
mite population, Week 3 [6]: 23.8c
mite population, Week 1 ([6]; samples of 5 leaves): 0.0b
control as to nematode count [7]: no control
Mean Number of White Flies ([1]; 6 Days After Treatment, rate 0.5): 26.8 living whitefly immatures per leaf
Mean Number of White Flies ([1]; 10 Days After Treatment, rate 0.5): 44.5 living whitefly immatures per leaf
